Experimental data: PubChem BioAssay AID248 (DTP/NCI, 2004)
Where “and” joins values, the source holds several entries; their conditions need not be identical. Identical values can stand only once. Toxic doses and inconclusive results are not listed.

Tested on: L1210 leukemia ip in BDF1 mice, survival T/C
Experiment: NCI In Vivo Anticancer Drug Screen. Data for tumor model L1210 Leukemia (intraperitoneal) in B6D2F1 (BDF1) mice
Conditions: endpoint: mean survival time, higher = longer survival
In short: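 Tumor was transplanted into mice, which were then dosed with test compound or vehicle alone. Survival was recorded for each group, and the treated figure was expressed relative to the control figure.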

[1] = dose: 50.0 mg/kg/injection, schedule: Q01DX009 (ip), vehicle: saline with Tween-80
[2] = dose: 100.0 mg/kg/injection, schedule: Q01DX009 (ip), vehicle: saline with Tween-80
[3] = dose: 100.0 mg/kg/injection, schedule: Q04DX003 (ip), vehicle: saline with Tween-80
[4] = dose: 200.0 mg/kg/injection, schedule: Q01DX009 (ip), vehicle: saline with Tween-80
[5] = dose: 200.0 mg/kg/injection, schedule: Q04DX003 (ip), vehicle: saline with Tween-80
[6] = dose: 400.0 mg/kg/injection, schedule: Q04DX003 (ip), vehicle: saline with Tween-80
[7] = dose: 100.0 mg/kg/injection, schedule: Q04DX003 (ip), vehicle: Klucel (hydroxypropylcellulose) (HPC)
[8] = dose: 200.0 mg/kg/injection, schedule: Q04DX003 (ip), vehicle: Klucel (hydroxypropylcellulose) (HPC)
[9] = dose: 400.0 mg/kg/injection, schedule: Q04DX003 (ip), vehicle: Klucel (hydroxypropylcellulose) (HPC)

CN(C)c1ccnc(N(C)C)n1
T/C (dose: 16.0 mg/kg/injection, schedule: Q01DX Z (ip), vehicle: methylcellulose (MC)): 96 % of control
T/C (dose: 31.0 mg/kg/injection, schedule: Q01DX Z (ip), vehicle: methylcellulose (MC)): 98 % of control

[O-][n+]1ccc(Cl)c2ccsc21
T/C [1]: 102 % of control
T/C [2]: 96 % of control
T/C [3]: 103 % of control
T/C [4]: 101 % of control
T/C [5]: 97 % of control
T/C [6]: 98 % of control

CN1CC(C(=O)N2CCCCC2)C=C2c3cccc4[nH]cc(c34)CC21 (stereo unspecified)
T/C (dose: 3.12 mg/kg/injection, schedule: Q01DX009 (ip), vehicle: saline): 95 % of control
T/C (dose: 6.25 mg/kg/injection, schedule: Q01DX009 (ip), vehicle: saline): 97 % of control
T/C (dose: 12.5 mg/kg/injection, schedule: Q01DX009 (ip), vehicle: saline): 98 % of control
T/C (dose: 25.0 mg/kg/injection, schedule: Q01DX009 (ip), vehicle: saline): 104 % of control
T/C (dose: 25.0 mg/kg/injection, schedule: Q04DX003 (ip), vehicle: saline): 100 % of control
T/C (dose: 50.0 mg/kg/injection, schedule: Q01DX009 (ip), vehicle: saline): 93 % of control
T/C (dose: 50.0 mg/kg/injection, schedule: Q04DX003 (ip), vehicle: saline): 98 % of control
T/C (dose: 100.0 mg/kg/injection, schedule: Q04DX003 (ip), vehicle: saline): 97 % of control

COc1c(NC(=O)C(Br)C(Br)C(=O)O)cccc1[N+](=O)[O-] (stereo unspecified)
T/C [2]: 100 % of control
T/C [4]: 95 % of control
T/C (dose: 400.0 mg/kg/injection, schedule: Q01DX009 (ip), vehicle: saline with Tween-80): 95 % of control

Nc1nc(CBr)c(CCCCc2ccccc2)c(=O)[nH]1
T/C (dose: 37.5 mg/kg/injection, schedule: Q01DX001 (ip), vehicle: saline with Tween-80): 100 % of control
T/C (dose: 75.0 mg/kg/injection, schedule: Q01DX001 (ip), vehicle: saline with Tween-80): 101 % of control

Cc1cccc(C(=O)O)c1CC1NCCC2c3ccccc3NC12 (stereo unspecified)
T/C (dose: 75.0 mg/kg/injection, schedule: Q01DX001 (ip), vehicle: saline): 98 % of control
T/C (dose: 150.0 mg/kg/injection, schedule: Q01DX001 (ip), vehicle: saline): 100 % of control

[O-]c1n[n+](C2CCCCC2)no1
T/C (dose: 5.0 mg/kg/injection, schedule: Q01DX001 (ip), vehicle: other): 106 % of control
T/C (dose: 10.0 mg/kg/injection, schedule: Q01DX001 (ip), vehicle: other): 101 % of control

Fc1ccccc1CSc1ncnc2nc[nH]c12
T/C (dose: 40.0 mg/kg/injection, schedule: Q01DX009 (ip), vehicle: saline): 115 % of control
T/C (dose: 150.0 mg/kg/injection, schedule: Q01DX009 (ip), vehicle: saline): 157 % of control
T/C (dose: 175.0 mg/kg/injection, schedule: Q01DX001 (ip), vehicle: saline): 117 % of control and 118 % of control
T/C (dose: 265.0 mg/kg/injection, schedule: Q01DX001 (ip), vehicle: saline): 112 % of control and 120 % of control
T/C (dose: 400.0 mg/kg/injection, schedule: Q01DX001 (ip), vehicle: saline): 122 % of control
T/C (dose: 600.0 mg/kg/injection, schedule: Q01DX001 (ip), vehicle: saline): 100 % of control

Nc1ncnc2c1ccn2C1OC(CO)C(O)C1O (stereo unspecified)
T/C (dose: 0.25 mg/kg/injection, schedule: Q01DX Z (ip), vehicle: carboxymethylcellulose (CMC)): 101 % of control
T/C (dose: 0.5 mg/kg/injection, schedule: Q01DX001 (ip), vehicle: carboxymethylcellulose (CMC)): 108 % of control
T/C (dose: 0.5 mg/kg/injection, schedule: Q01DX Z (ip), vehicle: carboxymethylcellulose (CMC)): 104 % of control
T/C (dose: 0.5 mg/kg/injection, schedule: Q02DX009 (ip), vehicle: carboxymethylcellulose (CMC)): 109 % of control
T/C (dose: 0.5 mg/kg/injection, schedule: Q## X003 (ip), vehicle: carboxymethylcellulose (CMC)): 110 % of control
T/C (dose: 0.75 mg/kg/injection, schedule: Q01DX Z (ip), vehicle: carboxymethylcellulose (CMC)): 104 % of control
T/C (dose: 1.0 mg/kg/injection, schedule: Q01DX001 (ip), vehicle: carboxymethylcellulose (CMC)): 113 % of control
T/C (dose: 1.0 mg/kg/injection, schedule: Q01DX Z (ip), vehicle: carboxymethylcellulose (CMC)): 106 % of control
T/C (dose: 1.0 mg/kg/injection, schedule: Q02DX009 (ip), vehicle: carboxymethylcellulose (CMC)): 115 % of control
T/C (dose: 1.0 mg/kg/injection, schedule: Q## X003 (ip), vehicle: carboxymethylcellulose (CMC)): 111 % of control
T/C (dose: 1.0 mg/kg/injection, schedule: Q## X005 (ip), vehicle: carboxymethylcellulose (CMC)): 113 % of control
T/C (dose: 1.2 mg/kg/injection, schedule: Q01DX001 (ip), vehicle: carboxymethylcellulose (CMC)): 107 % of control
T/C (dose: 1.25 mg/kg/injection, schedule: Q01DX Z (ip), vehicle: carboxymethylcellulose (CMC)): 116 % of control
T/C (dose: 1.9 mg/kg/injection, schedule: Q01DX001 (ip), vehicle: carboxymethylcellulose (CMC)): 119 % of control
T/C (dose: 2.0 mg/kg/injection, schedule: Q02DX009 (ip), vehicle: carboxymethylcellulose (CMC)): 122 % of control
T/C (dose: 2.0 mg/kg/injection, schedule: Q## X003 (ip), vehicle: carboxymethylcellulose (CMC)): 123 % of control
T/C (dose: 2.0 mg/kg/injection, schedule: Q## X005 (ip), vehicle: carboxymethylcellulose (CMC)): 120 % of control
T/C (dose: 2.5 mg/kg/injection, schedule: Q01DX Z (ip), vehicle: carboxymethylcellulose (CMC)): 98 % of control
T/C (dose: 4.0 mg/kg/injection, schedule: Q## X005 (ip), vehicle: carboxymethylcellulose (CMC)): 102 % of control

O=C(Nc1cccc(Cl)c1)Nc1cccc(Cl)c1
T/C (dose: 100.0 mg/kg/injection, schedule: Q01DX009 (ip), vehicle: Klucel (hydroxypropylcellulose) (HPC)): 94 % of control
T/C [7]: 102 % of control
T/C (dose: 200.0 mg/kg/injection, schedule: Q01DX009 (ip), vehicle: Klucel (hydroxypropylcellulose) (HPC)): 108 % of control
T/C [8]: 93 % of control
T/C (dose: 400.0 mg/kg/injection, schedule: Q01DX009 (ip), vehicle: Klucel (hydroxypropylcellulose) (HPC)): 101 % of control
T/C [9]: 100 % of control

COc1ccc(Cl)cc1NC(=O)COc1cc(Cl)c(Cl)cc1Cl
T/C [1]: 101 % of control
T/C [2]: 96 % of control
T/C [4]: 104 % of control

CNC(=O)O/N=C(\C(=N\OC(=O)NC)c1ccccc1)c1ccccc1
T/C (dose: 100.0 mg/kg/injection, schedule: Q01DX001 (ip), vehicle: carboxymethylcellulose (CMC)): 96 % of control
T/C (dose: 200.0 mg/kg/injection, schedule: Q01DX001 (ip), vehicle: carboxymethylcellulose (CMC)): 96 % of control
T/C (dose: 400.0 mg/kg/injection, schedule: Q01DX001 (ip), vehicle: carboxymethylcellulose (CMC)): 96 % of control

[N-]=[N+]=Nc1cccc[n+]1[O-]
T/C [7]: 105 % of control
T/C [8]: 109 % of control
T/C [9]: 105 % of control

CC(=O)Nc1nc(Cl)c([N+](=O)[O-])c(Cl)n1
T/C (dose: 3.12 mg/kg/injection, schedule: Q04DX002 (ip), vehicle: Klucel (hydroxypropylcellulose) (HPC)): 103 % of control
T/C (dose: 6.25 mg/kg/injection, schedule: Q04DX002 (ip), vehicle: Klucel (hydroxypropylcellulose) (HPC)): 100 % of control
T/C (dose: 12.5 mg/kg/injection, schedule: Q01DX001 (ip), vehicle: Klucel (hydroxypropylcellulose) (HPC)): 92 % of control
T/C (dose: 12.5 mg/kg/injection, schedule: Q04DX002 (ip), vehicle: Klucel (hydroxypropylcellulose) (HPC)): 103 % of control

CN=C(NCCc1ccccc1)c1ccc(NC(=O)c2ccc(C(=O)Nc3ccc(C(=NC)NCCc4ccccc4)cc3)cc2)cc1
T/C (dose: 3.75 mg/kg/injection, schedule: Q01DX Z (ip), vehicle: saline): 102 % of control
T/C (dose: 7.5 mg/kg/injection, schedule: Q01DX Z (ip), vehicle: saline): 105 % of control

COc1ccc(NC(=O)/C=C/c2ccc([N+](=O)[O-])cc2)cc1S(=O)(=O)F
T/C [7]: 98 % of control
T/C [8]: 107 % of control
T/C [9]: 98 % of control

O=C1c2ccccc2-c2cc(Cl)c(Cl)cc21
T/C [7]: 96 % of control
T/C [8]: 103 % of control
T/C [9]: 105 % of control

CN(C)C(=S)Oc1c(Cl)cc(Cl)cc1S(=O)(=O)F
T/C [7]: 104 % of control
T/C [8]: 98 % of control
T/C [9]: 98 % of control

C[n+]1ccsc1
T/C [3]: 104 % of control
T/C [5]: 103 % of control
T/C [6]: 97 % of control

O=S(=O)(N/N=C/c1cc(Cl)ccc1O)c1cc(Cl)c(Cl)cc1Cl
T/C (dose: 5.0 mg/kg/injection, schedule: Q01DX Z (ip), vehicle: other): 107 % of control
T/C (dose: 10.0 mg/kg/injection, schedule: Q01DX Z (ip), vehicle: other): 110 % of control
T/C (dose: 20.0 mg/kg/injection, schedule: Q01DX Z (ip), vehicle: other): 105 % of control
